From ChEMBL document CHEMBL1145633, “Inhibitors of the tyrosine kinase EphB4. Part 1: Structure-based design and optimization of a series of 2,4-bis-anilinopyrimidines” (Bioorg Med Chem Lett, 2008)
pIC50: −log10 of the molar value. In brackets after ≈: the same amount, converted by molar mass. Values belong to the compound of their own block, whether it stands above or below them.

What was measured:
Ephrin type-B receptor 2 = target: T1, Ephrin type-B receptor 2 (Homo sapiens, UniProt P29323); assay: Inhibition of EphB2
T1 sequence (P29323 whole entry): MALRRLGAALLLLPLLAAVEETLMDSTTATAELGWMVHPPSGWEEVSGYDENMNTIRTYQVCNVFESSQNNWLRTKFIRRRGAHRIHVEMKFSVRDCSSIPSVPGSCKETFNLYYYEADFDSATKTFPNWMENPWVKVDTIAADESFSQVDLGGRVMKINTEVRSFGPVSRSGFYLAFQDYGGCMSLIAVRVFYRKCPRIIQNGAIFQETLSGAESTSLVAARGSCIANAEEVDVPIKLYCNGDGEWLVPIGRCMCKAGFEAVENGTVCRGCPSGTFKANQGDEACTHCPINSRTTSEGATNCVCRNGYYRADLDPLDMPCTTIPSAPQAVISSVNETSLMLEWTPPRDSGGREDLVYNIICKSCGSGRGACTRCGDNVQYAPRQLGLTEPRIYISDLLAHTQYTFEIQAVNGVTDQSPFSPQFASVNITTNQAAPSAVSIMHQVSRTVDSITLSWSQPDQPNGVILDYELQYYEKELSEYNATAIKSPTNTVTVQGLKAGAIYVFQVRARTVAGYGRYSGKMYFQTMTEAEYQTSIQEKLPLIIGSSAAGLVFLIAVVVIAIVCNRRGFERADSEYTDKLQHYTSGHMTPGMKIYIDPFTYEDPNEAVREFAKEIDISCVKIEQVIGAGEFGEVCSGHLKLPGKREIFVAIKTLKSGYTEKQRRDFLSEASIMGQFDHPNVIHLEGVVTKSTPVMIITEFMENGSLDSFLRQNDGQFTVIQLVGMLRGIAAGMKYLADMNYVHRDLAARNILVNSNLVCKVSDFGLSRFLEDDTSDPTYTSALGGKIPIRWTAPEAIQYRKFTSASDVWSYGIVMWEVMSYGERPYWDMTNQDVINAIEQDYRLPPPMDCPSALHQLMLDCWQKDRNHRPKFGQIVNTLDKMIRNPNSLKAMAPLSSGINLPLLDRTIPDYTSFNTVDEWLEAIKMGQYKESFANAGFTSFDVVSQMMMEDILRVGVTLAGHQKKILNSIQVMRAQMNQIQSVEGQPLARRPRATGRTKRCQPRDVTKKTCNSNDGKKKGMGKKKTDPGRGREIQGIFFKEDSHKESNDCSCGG

[1] = target: Proto-oncogene tyrosine-protein kinase Src (Homo sapiens, UniProt P12931); assay: Inhibition of Src
Proto-oncogene tyrosine-protein kinase Src, sequence (P12931 2-536 limits assumed): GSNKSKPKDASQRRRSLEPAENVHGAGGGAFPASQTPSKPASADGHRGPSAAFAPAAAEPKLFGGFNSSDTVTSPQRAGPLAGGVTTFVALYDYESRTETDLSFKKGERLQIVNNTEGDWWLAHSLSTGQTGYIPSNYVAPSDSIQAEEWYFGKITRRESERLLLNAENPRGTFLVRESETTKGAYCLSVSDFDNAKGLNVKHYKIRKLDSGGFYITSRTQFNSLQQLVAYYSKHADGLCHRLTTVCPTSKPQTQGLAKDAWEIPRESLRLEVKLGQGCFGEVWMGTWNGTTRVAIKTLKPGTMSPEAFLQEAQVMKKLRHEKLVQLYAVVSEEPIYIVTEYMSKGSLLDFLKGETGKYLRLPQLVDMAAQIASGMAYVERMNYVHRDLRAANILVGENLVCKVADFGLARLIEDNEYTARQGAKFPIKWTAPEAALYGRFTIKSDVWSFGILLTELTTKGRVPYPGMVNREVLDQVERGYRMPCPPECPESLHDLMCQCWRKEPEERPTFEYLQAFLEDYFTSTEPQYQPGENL

[2] = target: Tyrosine-protein kinase CSK (Homo sapiens, UniProt P41240); assay: Inhibition of CSK
[3] = target: Cyclin-dependent kinase 2 (Homo sapiens, UniProt P24941); assay: Inhibition of CDK2
Focal adhesion kinase 1 = Focal adhesion kinase 1 (Homo sapiens, UniProt Q05397); assay: Inhibition of FAK
Focal adhesion kinase 1, sequence (Q05397 whole entry): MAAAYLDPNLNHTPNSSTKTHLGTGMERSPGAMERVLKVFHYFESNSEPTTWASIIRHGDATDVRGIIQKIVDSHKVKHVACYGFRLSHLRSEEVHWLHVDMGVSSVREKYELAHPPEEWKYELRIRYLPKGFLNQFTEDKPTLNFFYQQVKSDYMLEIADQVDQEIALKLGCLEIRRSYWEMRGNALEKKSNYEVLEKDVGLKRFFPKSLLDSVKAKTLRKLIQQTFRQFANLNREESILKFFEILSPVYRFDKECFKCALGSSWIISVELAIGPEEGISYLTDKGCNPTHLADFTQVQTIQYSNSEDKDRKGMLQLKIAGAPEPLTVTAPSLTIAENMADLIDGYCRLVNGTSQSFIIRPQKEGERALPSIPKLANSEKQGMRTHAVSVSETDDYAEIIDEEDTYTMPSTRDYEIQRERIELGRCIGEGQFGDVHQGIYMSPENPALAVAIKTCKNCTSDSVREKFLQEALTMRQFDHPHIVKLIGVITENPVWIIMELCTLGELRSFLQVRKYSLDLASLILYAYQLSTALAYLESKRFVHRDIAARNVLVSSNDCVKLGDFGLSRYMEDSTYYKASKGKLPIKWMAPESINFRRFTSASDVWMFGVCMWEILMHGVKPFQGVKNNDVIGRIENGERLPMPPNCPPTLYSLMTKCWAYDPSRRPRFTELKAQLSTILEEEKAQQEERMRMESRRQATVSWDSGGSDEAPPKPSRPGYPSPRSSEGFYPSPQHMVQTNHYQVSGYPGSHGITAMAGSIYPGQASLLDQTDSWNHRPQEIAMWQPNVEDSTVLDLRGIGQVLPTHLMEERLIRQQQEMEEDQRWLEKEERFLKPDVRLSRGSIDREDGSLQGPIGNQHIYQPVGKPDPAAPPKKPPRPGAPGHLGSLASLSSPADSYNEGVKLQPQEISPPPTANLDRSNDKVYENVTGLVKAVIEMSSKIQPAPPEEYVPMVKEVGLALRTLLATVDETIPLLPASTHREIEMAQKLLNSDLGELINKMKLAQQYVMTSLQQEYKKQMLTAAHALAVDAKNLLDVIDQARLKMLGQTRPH

[4] = target: T2, Tyrosine-protein kinase JAK3 (Homo sapiens, UniProt P52333); assay: Inhibition of JAK3
T2 sequence (P52333 whole entry): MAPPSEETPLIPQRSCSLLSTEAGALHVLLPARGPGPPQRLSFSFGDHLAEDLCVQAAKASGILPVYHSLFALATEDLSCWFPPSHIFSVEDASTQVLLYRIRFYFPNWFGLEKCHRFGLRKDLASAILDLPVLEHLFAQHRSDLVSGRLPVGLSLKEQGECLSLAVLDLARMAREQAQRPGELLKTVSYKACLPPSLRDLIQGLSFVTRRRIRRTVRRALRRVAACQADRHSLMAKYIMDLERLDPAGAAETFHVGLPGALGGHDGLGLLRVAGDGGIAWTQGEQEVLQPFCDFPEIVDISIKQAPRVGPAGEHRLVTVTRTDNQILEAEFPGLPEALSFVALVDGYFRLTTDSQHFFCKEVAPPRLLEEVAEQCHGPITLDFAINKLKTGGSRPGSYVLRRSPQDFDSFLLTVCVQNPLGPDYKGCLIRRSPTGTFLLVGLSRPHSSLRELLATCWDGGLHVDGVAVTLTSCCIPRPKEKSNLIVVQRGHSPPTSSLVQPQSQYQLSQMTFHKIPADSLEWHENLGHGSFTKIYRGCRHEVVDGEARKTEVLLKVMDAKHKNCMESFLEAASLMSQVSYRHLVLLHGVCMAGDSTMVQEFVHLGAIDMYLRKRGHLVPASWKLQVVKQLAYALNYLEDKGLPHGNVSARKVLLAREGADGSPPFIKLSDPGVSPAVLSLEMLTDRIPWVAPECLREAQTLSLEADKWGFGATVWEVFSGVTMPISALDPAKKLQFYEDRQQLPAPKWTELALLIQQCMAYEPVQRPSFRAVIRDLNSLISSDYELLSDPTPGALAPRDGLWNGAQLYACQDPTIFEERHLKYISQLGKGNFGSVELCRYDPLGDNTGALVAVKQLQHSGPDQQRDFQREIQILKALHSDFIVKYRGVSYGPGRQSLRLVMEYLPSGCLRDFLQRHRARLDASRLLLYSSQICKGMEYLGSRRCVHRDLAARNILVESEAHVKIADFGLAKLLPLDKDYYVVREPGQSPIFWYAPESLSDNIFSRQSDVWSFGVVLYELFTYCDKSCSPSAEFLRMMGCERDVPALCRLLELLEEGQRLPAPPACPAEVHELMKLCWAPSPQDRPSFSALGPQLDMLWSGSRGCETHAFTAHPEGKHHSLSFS

[5] = Inhibition of p38
[6] = target: Insulin-like growth factor 1 receptor (Homo sapiens, UniProt P08069); assay: Inhibition of IGF
Insulin-like growth factor 1 receptor, sequence (P08069 31-736 limits assumed): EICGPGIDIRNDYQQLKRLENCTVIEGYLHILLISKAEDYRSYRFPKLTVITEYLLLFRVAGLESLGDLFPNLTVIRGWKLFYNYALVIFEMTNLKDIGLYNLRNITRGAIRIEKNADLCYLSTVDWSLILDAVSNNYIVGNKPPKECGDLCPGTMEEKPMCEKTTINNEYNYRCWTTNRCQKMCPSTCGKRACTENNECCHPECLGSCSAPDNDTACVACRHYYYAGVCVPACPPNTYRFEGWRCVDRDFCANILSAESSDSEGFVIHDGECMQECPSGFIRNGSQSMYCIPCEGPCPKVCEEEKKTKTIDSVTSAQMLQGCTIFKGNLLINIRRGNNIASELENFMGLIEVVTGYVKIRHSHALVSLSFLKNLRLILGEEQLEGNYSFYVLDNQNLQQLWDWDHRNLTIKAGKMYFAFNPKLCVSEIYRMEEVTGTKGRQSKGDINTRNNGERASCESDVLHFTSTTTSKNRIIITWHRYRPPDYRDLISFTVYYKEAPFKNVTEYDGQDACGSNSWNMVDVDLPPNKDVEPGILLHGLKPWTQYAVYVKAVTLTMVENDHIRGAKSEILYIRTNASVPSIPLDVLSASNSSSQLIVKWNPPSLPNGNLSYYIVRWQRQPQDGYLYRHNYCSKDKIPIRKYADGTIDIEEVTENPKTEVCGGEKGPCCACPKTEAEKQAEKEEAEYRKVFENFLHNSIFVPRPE
Insulin-like growth factor 1 receptor, sequence (P08069 741-1367 limits assumed): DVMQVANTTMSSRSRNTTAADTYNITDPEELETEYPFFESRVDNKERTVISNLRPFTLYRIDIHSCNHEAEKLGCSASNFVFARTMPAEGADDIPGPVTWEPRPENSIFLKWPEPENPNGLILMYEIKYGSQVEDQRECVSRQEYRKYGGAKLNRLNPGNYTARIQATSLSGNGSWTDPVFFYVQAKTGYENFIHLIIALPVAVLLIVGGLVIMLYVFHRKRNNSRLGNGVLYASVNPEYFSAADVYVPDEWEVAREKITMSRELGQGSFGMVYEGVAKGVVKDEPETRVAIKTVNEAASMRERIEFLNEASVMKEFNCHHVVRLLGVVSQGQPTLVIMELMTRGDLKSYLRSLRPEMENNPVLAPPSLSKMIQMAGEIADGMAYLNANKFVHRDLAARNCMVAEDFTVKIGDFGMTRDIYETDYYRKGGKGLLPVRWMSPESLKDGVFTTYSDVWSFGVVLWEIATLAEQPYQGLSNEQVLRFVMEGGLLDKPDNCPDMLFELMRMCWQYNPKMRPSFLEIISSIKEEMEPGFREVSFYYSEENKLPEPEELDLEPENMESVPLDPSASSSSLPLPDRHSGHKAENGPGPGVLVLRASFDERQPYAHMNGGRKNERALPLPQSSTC

[7] = target: T3, Tyrosine-protein kinase ZAP-70 (Homo sapiens, UniProt P43403); assay: Inhibition of ZAP70
T3 sequence (P43403 whole entry): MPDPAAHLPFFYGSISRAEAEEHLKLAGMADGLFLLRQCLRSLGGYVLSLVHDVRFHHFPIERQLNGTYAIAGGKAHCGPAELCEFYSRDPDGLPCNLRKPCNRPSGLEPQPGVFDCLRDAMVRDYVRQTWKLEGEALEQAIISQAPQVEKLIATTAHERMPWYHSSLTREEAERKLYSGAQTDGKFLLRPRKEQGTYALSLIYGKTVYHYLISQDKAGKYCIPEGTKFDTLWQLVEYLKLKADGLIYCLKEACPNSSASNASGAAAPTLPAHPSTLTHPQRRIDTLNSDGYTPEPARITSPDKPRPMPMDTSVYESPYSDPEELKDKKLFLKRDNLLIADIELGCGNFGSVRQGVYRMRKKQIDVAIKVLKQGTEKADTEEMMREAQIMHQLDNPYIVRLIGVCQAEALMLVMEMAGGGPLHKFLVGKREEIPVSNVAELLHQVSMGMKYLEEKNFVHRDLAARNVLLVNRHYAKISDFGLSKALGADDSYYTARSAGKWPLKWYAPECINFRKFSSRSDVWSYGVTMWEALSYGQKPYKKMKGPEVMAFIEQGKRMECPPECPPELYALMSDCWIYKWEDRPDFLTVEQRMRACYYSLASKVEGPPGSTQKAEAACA

[8] = target: Vascular endothelial growth factor receptor 2 (Homo sapiens, UniProt P35968); assay: Inhibition of KDR
Vascular endothelial growth factor receptor 2, sequence (P35968 whole entry): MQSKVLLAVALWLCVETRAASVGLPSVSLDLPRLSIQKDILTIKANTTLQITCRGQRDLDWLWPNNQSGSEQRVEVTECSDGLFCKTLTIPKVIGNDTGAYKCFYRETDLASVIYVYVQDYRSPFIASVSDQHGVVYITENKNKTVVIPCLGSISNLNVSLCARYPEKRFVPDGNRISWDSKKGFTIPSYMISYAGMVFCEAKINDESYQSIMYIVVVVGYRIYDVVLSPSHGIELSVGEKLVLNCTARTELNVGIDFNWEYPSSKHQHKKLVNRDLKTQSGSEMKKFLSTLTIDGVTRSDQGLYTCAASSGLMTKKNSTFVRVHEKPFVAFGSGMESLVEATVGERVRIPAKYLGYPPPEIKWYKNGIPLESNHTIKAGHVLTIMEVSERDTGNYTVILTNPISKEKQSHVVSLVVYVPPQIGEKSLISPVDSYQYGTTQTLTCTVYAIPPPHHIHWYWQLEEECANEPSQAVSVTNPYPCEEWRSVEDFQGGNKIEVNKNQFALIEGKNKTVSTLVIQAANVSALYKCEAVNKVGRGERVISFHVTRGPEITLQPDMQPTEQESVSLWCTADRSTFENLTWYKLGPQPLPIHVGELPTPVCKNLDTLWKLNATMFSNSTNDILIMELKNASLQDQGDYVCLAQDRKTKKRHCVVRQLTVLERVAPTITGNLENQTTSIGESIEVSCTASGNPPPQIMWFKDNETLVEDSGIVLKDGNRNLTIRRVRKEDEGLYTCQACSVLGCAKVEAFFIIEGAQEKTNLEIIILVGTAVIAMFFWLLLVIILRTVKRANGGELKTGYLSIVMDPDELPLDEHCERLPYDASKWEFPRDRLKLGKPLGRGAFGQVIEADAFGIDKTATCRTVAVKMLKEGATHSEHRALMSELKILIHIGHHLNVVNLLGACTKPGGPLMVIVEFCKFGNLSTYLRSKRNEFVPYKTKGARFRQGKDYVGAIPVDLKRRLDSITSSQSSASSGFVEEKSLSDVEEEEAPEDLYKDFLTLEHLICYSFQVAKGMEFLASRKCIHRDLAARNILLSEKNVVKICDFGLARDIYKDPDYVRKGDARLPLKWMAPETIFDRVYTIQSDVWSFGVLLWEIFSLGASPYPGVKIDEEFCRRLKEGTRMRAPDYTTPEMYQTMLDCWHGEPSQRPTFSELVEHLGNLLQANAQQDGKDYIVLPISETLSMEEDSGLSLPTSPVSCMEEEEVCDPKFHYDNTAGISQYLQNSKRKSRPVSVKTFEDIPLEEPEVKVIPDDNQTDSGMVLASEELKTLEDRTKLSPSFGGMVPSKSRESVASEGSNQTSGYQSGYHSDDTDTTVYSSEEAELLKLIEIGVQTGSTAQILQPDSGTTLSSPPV

[9] = target: Serine/threonine-protein kinase PLK1 (Homo sapiens, UniProt P53350); assay: Inhibition of PLK
Serine/threonine-protein kinase PLK1, sequence (P53350 whole entry): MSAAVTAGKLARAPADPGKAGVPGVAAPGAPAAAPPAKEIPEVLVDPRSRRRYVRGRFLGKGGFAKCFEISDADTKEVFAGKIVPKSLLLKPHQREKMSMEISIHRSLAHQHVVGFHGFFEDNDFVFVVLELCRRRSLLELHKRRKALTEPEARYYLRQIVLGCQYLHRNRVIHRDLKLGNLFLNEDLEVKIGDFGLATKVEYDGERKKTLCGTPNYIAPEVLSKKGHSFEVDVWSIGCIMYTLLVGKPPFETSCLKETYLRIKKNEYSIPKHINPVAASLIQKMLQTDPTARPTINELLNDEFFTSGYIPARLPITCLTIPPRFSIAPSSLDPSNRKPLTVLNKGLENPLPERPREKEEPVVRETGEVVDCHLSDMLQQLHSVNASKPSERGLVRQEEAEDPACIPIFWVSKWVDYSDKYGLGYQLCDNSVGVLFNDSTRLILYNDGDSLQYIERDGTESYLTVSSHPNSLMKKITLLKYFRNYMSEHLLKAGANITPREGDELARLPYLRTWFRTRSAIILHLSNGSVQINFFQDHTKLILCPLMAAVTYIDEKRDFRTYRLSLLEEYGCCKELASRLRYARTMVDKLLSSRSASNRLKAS

[10] = target: T4, Serine/threonine-protein kinase Chk1 (Homo sapiens, UniProt O14757); assay: Inhibition of CHK1
T4 sequence (O14757 whole entry): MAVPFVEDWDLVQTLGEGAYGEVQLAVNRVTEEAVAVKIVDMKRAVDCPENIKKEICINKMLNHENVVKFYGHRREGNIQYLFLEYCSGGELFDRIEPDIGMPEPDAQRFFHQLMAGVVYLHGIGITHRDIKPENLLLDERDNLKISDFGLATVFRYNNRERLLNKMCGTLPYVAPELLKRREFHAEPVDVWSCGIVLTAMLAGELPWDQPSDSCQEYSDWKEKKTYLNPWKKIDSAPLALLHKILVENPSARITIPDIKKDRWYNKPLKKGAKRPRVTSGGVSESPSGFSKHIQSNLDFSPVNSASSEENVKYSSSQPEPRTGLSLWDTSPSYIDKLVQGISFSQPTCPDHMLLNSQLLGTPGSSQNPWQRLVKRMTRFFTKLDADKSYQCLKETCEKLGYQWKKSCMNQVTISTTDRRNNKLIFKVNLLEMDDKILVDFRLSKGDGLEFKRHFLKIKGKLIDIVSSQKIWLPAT

[11] = Inhibition of JNK
[12] = Inhibition of PKA
[13] = Lipophilicity, Log D of compound at pH 7.4; type: physicochemical; settings: buffer
[14] = Aqueous solubility of compound at pH 7.4; type: physicochemical
Plasma = assay: Protein binding in Han Wistar rat plasma assessed as free drug; type: ADME, cell-free
[15] = Bioavailability in Han Wistar rat at 5 umol/kg, po; type: ADME, organism-based; settings: in vivo
[16] = Volume of distribution at steady state in Han Wistar rat at 5 umol/kg, po or 0.5 umol/kg, iv; type: ADME, organism-based; settings: in vivo, read-out: Vdss
[17] = Half life in Han Wistar rat at 5 umol/kg, po; type: ADME, organism-based; settings: in vivo
[18] = AUC in Han Wistar rat at 5 umol/kg, po; type: ADME, organism-based; settings: plasma
[19] = Clearance in Han Wistar rat at 5 umol/kg, po or 0.5 umol/kg, iv; type: ADME, organism-based; settings: in vivo
[20] = Inhibition of FGF
Ephrin type-B receptor 4 = target: T5, Ephrin type-B receptor 4 (Homo sapiens, UniProt P54760); assay: Inhibition of EphB4
T5 sequence (P54760 whole entry): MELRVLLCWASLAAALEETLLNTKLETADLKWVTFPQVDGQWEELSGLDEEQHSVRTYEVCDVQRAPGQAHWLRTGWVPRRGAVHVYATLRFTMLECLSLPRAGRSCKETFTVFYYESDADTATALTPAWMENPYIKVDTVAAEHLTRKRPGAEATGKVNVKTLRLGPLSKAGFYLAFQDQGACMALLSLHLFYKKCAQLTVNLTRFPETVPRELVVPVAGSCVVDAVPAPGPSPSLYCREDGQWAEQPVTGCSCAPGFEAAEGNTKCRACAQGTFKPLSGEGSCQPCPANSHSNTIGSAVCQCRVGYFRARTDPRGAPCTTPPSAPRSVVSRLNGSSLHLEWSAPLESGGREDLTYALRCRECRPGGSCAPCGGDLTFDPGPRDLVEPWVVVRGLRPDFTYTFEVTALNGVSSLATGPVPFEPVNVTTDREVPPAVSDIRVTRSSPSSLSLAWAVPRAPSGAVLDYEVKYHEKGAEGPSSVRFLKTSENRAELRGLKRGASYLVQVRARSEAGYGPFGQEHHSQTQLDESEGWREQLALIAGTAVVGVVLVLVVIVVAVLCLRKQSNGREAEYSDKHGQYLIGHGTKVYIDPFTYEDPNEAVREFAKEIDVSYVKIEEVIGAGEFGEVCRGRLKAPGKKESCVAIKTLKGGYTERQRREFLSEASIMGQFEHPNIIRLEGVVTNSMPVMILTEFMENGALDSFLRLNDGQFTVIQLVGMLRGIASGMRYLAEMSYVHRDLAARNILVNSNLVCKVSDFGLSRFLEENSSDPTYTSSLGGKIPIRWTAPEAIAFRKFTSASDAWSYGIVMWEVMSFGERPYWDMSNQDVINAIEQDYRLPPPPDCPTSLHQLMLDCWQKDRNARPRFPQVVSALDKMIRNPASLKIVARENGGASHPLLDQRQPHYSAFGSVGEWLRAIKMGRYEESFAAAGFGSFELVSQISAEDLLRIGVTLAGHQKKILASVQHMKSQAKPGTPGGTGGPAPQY

SMILES: CS(=O)(=O)c1cccc(Nc2nccc(Nc3c(Cl)ccc4c3OCO4)n2)c1
pIC50 (Ephrin type-B receptor 2): 7.30
pIC50 [1]: > 7.00
pIC50 [2]: 4.97
pIC50 [3]: 4.75
pIC50 (Focal adhesion kinase 1): 4.71
pIC50 [4]: 4.69
pIC50 [5]: 4.57
pIC50 [6]: < 4.52
pIC50 [7]: < 4.52
pIC50 [8]: < 4.52
pIC50 [9]: < 4.52
pIC50 [10]: < 4.52
pIC50 [11]: < 4.52
pIC50 [12]: < 4.52
logD [13]: 3.13
solubility [14]: 30 µM (≈ 12.6 µg/mL)
Fu (Plasma): 0.74%
bioavailability [15]: 30%
Vd [16]: 0.5 L/kg
half-life [17]: 5.3 h
AUC [18]: 4 µM·h
clearance [19]: 6.1 mL/min/kg
pIC50 [20]: < 4.52

SMILES: Clc1ccccc1Nc1nccc(Nc2c(Cl)ccc3c2OCO3)n1
pIC50 (Ephrin type-B receptor 4): 4.95

SMILES: Cc1ccc(Nc2nccc(Nc3c(Cl)ccc4c3OCO4)n2)cc1
pIC50 (Ephrin type-B receptor 4): 5.80

SMILES: CS(=O)(=O)c1ccccc1Nc1nccc(Nc2c(Cl)ccc3c2OCO3)n1
pIC50 (Ephrin type-B receptor 4): 4.39

SMILES: COc1cc(Nc2ncnc(Nc3c(Cl)ccc4c3OCO4)n2)cc(OC)c1OC
pIC50 (Ephrin type-B receptor 4): 5.53

SMILES: Cc1ccccc1Nc1nccc(Nc2c(Cl)ccc3c2OCO3)n1
pIC50 (Ephrin type-B receptor 4): 4.86

Continued by rising pIC50 (Ephrin type-B receptor 4), values first:

pIC50 (Ephrin type-B receptor 4): 5.81
SMILES: Clc1ccc2c(c1Nc1ccnc(Nc3ccccc3)n1)OCO2

pIC50 (Ephrin type-B receptor 4): 5.94
SMILES: Fc1cccc(Nc2nccc(Nc3c(Cl)ccc4c3OCO4)n2)c1

pIC50 (Ephrin type-B receptor 4): 6.00
SMILES: Clc1ccc2c(c1Nc1ccnc(Nc3ccc(N4CCOCC4)cc3)n1)OCO2

pIC50 (Ephrin type-B receptor 4): 6.19
SMILES: COc1cccc(Nc2nccc(Nc3c(Cl)ccc4c3OCO4)n2)c1

pIC50 (Ephrin type-B receptor 4): 6.20
SMILES: CS(=O)(=O)c1ccc(Nc2nccc(Nc3c(Cl)ccc4c3OCO4)n2)cc1

pIC50 (Ephrin type-B receptor 4): 6.26
SMILES: N#Cc1cccc(Nc2nccc(Nc3c(Cl)ccc4c3OCO4)n2)c1

pIC50 (Ephrin type-B receptor 4): 6.34
SMILES: Cc1cccc(Nc2nccc(Nc3c(Cl)ccc4c3OCO4)n2)c1
